Results reported in patent US7582622B2 (N.V. Organon, priority 2003, dated 2009).

Legend:
serum LH = assay: LH suppression assay in mature male castrated rats, p.o.; assay type: in vivo, rat; conditions: for oral activity (in words): statement in the introduction, test not named; for LH-Suppression MAD po: minimal active dose suppressing serum LH for 65%, castrated male rats, p.o. 4 days daily
Experimental: The in vivo potency of the compounds of the invention was determined in a mature male castrated rat model.
In this model serum LH is high (about 20× fold higher than with intact rats, due to the absence of the negative feedback of testicular testosterone). These rats are p.o. treated for 4 days daily with a given compound of the invention in a suspension fluid of arachis oil or arachis oil +5 or 10% ethanol. Before dosing and 3 hours after the last oral dose blood is collected via tail vein and in the serum LH is determined. Potency (p.o.) of the compounds of the invention (minimal active dose, MAD) is expressed as the amount (mg/kg) of a compound of the invention which suppresses serum LH for 65% (with a 95% confidence interval).
The rat LH Time-Resolved Immuno Fluorometric Assay (TR-IFMA) has been developed in house using home made reagents, a monoclonal catching antibody directed against the β-subunit of human chorion gonadotrophin (hCG, which cross reacts with rat β-subunit) and a biotin labelled detecting antibody (rabbit polydonal antibody directed against the alfa-subunit of recombinant rat LH). Recombinant rat LH was prepared according to known methods, e.g., the method described by Hakola et aL., Molecular & Cellular Endocrinology (1997), 128, 47-56. In this two-site-IFMA, only intact rat LH is determined by a final incubation with streptavidin-europium. The detection in the IFMA is based on fluorescence of the lanthanide europium during a relative long excitation period. The concentration range of rat LH standard is 0.001-10 ng/ml, for optimal accuracy measurements of serum LH serum samples were diluted 8-times with assay buffer (J. I. van Casteren et al., Biol. Reprod. (2000), 62, 886-894).

[1] = target: T1, human androgen receptor (hAR) (Homo sapiens, UniProt P10275); assay: transactivative androgen agonistic activity, CHO cells transfected with hAR, MMTV-luciferase; assay type: cell-based; parameters: Androgenic Activity (%): concentration or dose not given beside the values; conditions: for Androgenic Activity (%): compared with 5α-dihydrotestosterone, CHO-hAR, 16 h, 37° C.
T1 construct: expressed in transfected cells; host or cells: Chinese hamster ovary cells (CHO)
T1 sequence (P10275 1-920): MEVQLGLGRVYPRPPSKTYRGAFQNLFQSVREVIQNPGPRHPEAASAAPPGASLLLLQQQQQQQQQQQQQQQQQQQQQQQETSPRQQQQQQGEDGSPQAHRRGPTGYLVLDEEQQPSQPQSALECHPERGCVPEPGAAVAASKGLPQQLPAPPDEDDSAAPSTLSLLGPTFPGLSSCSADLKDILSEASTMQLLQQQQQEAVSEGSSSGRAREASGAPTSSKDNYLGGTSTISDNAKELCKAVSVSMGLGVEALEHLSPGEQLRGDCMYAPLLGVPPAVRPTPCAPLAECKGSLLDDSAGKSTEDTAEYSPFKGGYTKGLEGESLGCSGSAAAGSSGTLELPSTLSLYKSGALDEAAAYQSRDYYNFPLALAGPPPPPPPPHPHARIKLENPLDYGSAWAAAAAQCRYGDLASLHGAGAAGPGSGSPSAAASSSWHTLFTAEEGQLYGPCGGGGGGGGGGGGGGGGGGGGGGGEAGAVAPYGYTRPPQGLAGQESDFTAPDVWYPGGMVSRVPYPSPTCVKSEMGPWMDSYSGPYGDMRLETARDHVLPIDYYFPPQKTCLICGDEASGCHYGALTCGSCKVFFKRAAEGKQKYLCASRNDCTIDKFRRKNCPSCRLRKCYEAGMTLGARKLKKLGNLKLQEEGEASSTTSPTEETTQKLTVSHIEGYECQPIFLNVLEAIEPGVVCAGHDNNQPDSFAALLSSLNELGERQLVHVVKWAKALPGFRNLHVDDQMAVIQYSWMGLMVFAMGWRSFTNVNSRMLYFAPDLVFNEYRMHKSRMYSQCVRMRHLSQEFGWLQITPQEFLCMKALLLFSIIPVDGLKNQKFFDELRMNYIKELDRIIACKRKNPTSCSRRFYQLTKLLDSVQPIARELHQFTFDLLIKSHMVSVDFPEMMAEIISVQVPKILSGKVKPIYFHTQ
Experimental: (§1) The transactivative androgen agonistic activity of the compounds of the invention was measured in Chinese hamster ovary cells (CHO) transfected with the human androgen receptor (hAR), in combination with a mouse mammary tumor virus (MMTV), and luciferase receptor gene (incubation time 16 h, temperature 37° C.) and compared with the activity of 5α-dihydrotestosterone [according to the procedure described by Schoonen, W. G. E. J. et aL., Analyt. Biochem. 261, 222-224 (1998)].

[2] = target: T2, human progesterone receptor B (hPRB) (Homo sapiens, UniProt P06401); assay: transactivative progestagenic agonistic activity, CHO cells transfected with hPRB, MMTV-luciferase; assay type: cell-based; parameters: Progestational Activity (%): concentration or dose not given beside the values; conditions: for Progestational Activity (%): compared with (16α)-16-ethyl-21-hydroxy-19-norpregn-4ene-3,20-dione, CHO-hPRB, 16 h, 37° C.; for progestagenic activity (in words): statement in the introduction, test not named
T2 construct: expressed in transfected cells; host or cells: Chinese hamster ovary cells (CHO)
T2 sequence (P06401 1-933): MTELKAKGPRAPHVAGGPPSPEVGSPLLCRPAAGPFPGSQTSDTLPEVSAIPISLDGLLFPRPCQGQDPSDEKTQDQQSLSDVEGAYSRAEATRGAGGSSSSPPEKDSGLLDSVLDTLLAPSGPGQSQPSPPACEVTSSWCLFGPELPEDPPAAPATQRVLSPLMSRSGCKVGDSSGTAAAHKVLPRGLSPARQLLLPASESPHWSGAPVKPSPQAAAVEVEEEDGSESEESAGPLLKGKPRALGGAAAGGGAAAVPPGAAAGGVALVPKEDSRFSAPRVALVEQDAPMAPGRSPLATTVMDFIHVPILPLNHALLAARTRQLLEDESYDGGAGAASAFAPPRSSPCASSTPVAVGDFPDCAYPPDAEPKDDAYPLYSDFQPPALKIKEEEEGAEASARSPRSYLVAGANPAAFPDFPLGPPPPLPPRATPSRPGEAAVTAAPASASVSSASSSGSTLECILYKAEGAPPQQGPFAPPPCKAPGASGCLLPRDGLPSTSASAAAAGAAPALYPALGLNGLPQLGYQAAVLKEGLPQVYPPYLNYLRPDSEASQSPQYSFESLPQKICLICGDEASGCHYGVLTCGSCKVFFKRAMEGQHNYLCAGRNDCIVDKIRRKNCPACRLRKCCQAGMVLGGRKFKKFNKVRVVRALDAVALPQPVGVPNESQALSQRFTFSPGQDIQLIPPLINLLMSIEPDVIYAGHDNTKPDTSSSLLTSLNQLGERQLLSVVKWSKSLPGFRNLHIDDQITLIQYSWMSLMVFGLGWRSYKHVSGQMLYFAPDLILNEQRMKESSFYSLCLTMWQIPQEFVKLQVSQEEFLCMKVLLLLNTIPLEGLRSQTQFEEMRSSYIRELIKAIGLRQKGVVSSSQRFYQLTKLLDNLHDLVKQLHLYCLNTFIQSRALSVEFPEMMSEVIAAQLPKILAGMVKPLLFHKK
Experimental: as §1, with “transactivative progestagenic” for “transactivative androgen”, “human progesterone” for “human androgen”, “receptor B (hPRB),” for “receptor (hAR),”, “of (16α)-16-ethyl-21-hydroxy-19-norpregn-4ene-3,20-dione” for “of 5α-dihydrotestosterone”, “et al.,” for “et aL.,”

[3] = Anti-osteoporosis test in mature male castrated rats (6 weeks treatment); assay type: in vivo, rat; conditions: for Mean proportional difference in bone density: placebo intact 100%, placebo orx 0%; for BMD (gmean ± sem): orx male rats, trabecular BMD of femur
Experimental: In this test the oral efficacy of a compound of the invention for the prevention of castration-induced trabecular bone mineral density (BMD) loss in male rats was evaluated.
Mature male Wistar rats (350-400 g) were used. Orchidectomy (orx) or sham operation was performed under isoflurane anaesthesia. After recovery of anaesthesia, within 24 hours, rats were treated once daily for 6 weeks p.o. with different doses of the compounds of the invention or vehicle only (placebo intact, placebo orx) with a volume of 1 ml/kg (n=5). One day after the last administration autopsy is performed and the right femur is dissected out. Trabecular bone mineral density of the metaphysal part of the femur was measured with a pQCT (peripheral Quantitative Computed Tomography machine; XCT 960A, Stratec, Birkenfeld, Germany).

[4] = prior art statement; cited from earlier work
[5] = J. Seaman, Toxicologic Pathology (1985); cited from earlier work

Structure (SMILES): CCC1(O)CCCC2C3CCC4=CC(=O)CCC4C3CCC21CC [(17aβ)13,17a-diethyl-17a-hydroxy-D-homogon-4-en-3-one]
- oral activity (in words) (serum LH): not orally active

Structure (SMILES): CCC12CCC3C4CCC(=O)C=C4CCC3C1CCCC2(C)O [(17aβ)-13-ethyl-17a-hydroxy-17a-methyl-D-homogon-4-en-3-one]
- oral activity (in words) (serum LH): not orally active

Structure (SMILES): CCC12CCC3C4CCC(=O)C=C4CCC3C1CCCC2O [(17aβ)-13-ethyl-17a-hydroxy-D-homogon4-en-3-one]
- oral activity (in words) (serum LH): not orally active

Structure (SMILES): CC1CC2=CC(=O)CCC2C2CCC3(C)C(CCCC3(C)O)C12 [Cpd of Example 1, (7α,17aβ)-17a-hydroxy-7,17a-dimethyl-D-homoestr4-en-3-one]
- Androgenic Activity (%) [1]: 42.9%
- Progestational Activity (%) [2]: 53.3%
- LH-Suppression MAD po (serum LH): 8.5 mg/kg
- Mean proportional difference in bone density ([3]; 8 mg/kg p.o. 6 weeks): 133%
- BMD (gmean ± sem) ([3]; 8 mg/kg p.o. once daily 6 weeks): 255 ± 22

Structure (SMILES): CCC1(O)CCCC2C3C(C)CC4=CC(=O)CCC4C3CCC21C [Cpd of Example 2, (7α,17aβ)-17aethyl-17a-hydroxy-7-methyl-D-homoestr-4en-3-one]
- Androgenic Activity (%) [1]: 9.9%
- Progestational Activity (%) [2]: 29.7%
- LH-Suppression MAD po (serum LH): 10 mg/kg

Structure (SMILES): CC1(O)CCCC2C3CCC4=CC(=O)CCC4C3CCC21C [Reference compound A, (17aβ)-17a-Hydroxy-17a-methyl-D-homoestr-4-en-3-one]
- Androgenic Activity (%) [1]: 71.6%
- Progestational Activity (%) [2]: 98.0%
- progestagenic activity (in words) [2]: progestagenic activity
- LH-Suppression MAD po (serum LH): >30 mg/kg
- oral activity (in words) (serum LH): low activity upon oral administration
- Mean proportional difference in bone density ([3]; 16 mg/kg p.o. 6 weeks): 28%
- BMD (gmean ± sem) ([3]; 16 mg/kg p.o. once daily 6 weeks): 133 ± 20
- prevention of trabecular bone mineral density (BMD) loss (in words) ([3]; statement in the introduction): unable to prevent trabecular bone mineral density (BMD) loss

Structure (SMILES): CC1CC2=CC(=O)CCC2C2CCC3(C)C(O)CCCC3C12 [Reference compound B, (7α,17aβ)-17a-Hydroxy-7-methyl-D-homoestr-4-en-3-one]
- Androgenic Activity (%) [1]: 25.3%
- androgenic activity (in words) ([1]; statement in the introduction, test not named): mixed androgenic and progestagenic profile
- Progestational Activity (%) [2]: 10.6%
- progestagenic activity (in words) [2]: mixed androgenic and progestagenic profile
- LH-Suppression MAD po (serum LH): >30 mg/kg
- oral activity (in words) (serum LH): not orally active

Structure (SMILES): C[C@@H]1CC2=CC(=O)CC[C@@H]2[C@H]2CC[C@@]3(C)[C@@H](CC[C@]3(C)O)[C@@H]21 [Reference compound C, (7α,17β)-17-Hydroxy-7,17-dimethylestr-4-en-3-one]
- Androgenic Activity (%) [1]: 220%
- Progestational Activity (%) [2]: 45%
- LH-Suppression MAD po (serum LH): 1.0 mg/kg
- oral activity (in words) [4]: orally active
- liver toxicity (in words) [5]: severe liver toxicity
